Data from ChEMBL document CHEMBL4145553, “Design, synthesis, and biological evaluation of novel amide and hydrazide based thioether analogs targeting Histone deacteylase (HDAC) enzymes” (Eur J Med Chem, 2018).

Assays:
SN12C = assay: Growth inhibition of human SN12C cells at 10 uM incubated for 48 hrs by sulforhodamine B assay relative to control; format: functional; conditions: values are per cent of control
OVCAR-8 = assay: Growth of human OVCAR8 cells at 10 uM incubated for 48 hrs by sulforhodamine B assay relative to control; conditions: OVCAR-8, 48 h
A498 = assay: Growth inhibition of human A498 cells at 10 uM incubated for 48 hrs by sulforhodamine B assay relative to control; format: functional; conditions: A498, 48 h, values are per cent of control
RPMI-8226 = assay: Growth of human RPMI8226 cells at 10 uM incubated for 48 hrs by sulforhodamine B assay relative to control; conditions: RPMI-8226, 48 h
M14 = assay: Growth of human M14 cells at 10 uM incubated for 48 hrs by sulforhodamine B assay relative to control; conditions: M14, 48 h
ACHN = assay: Growth inhibition of human ACHN cells at 10 uM incubated for 48 hrs by sulforhodamine B assay relative to control; format: functional; conditions: values are per cent of control
786-0 = assay: Growth inhibition of human 786-0 cells at 10 uM incubated for 48 hrs by sulforhodamine B assay relative to control; format: functional; conditions: 786-0, 48 h, values are per cent of control
Malme-3M = assay: Growth of human MALME-3M cells at 10 uM incubated for 48 hrs by sulforhodamine B assay relative to control
BT-549 = assay: Growth inhibition of human BT549 cells at 10 uM incubated for 48 hrs by sulforhodamine B assay relative to control; format: functional; conditions: BT-549, 48 h, values are per cent of control
NCI-H460 = assay: Growth inhibition of human NCI-H460 cells at 10 uM incubated for 48 hrs by sulforhodamine B assay relative to control; format: functional; conditions: NCI-H460, 48 h, values are per cent of control
MOLT-4 = assay: Growth of human MOLT4 cells at 10 uM incubated for 48 hrs by sulforhodamine B assay relative to control; conditions: MOLT-4, 48 h
KM12 = assay: Growth of human KM12 cells at 10 uM incubated for 48 hrs by sulforhodamine B assay relative to control; conditions: KM12, 48 h
OVCAR-5 = assay: Growth of human OVCAR5 cells at 10 uM incubated for 48 hrs by sulforhodamine B assay relative to control; conditions: OVCAR-5, 48 h
NCI-H226 = assay: Growth inhibition of human NCI-H226 cells at 10 uM incubated for 48 hrs by sulforhodamine B assay relative to control; format: functional; conditions: NCI-H226, 48 h, values are per cent of control
SK-MEL-2 = assay: Growth of human SK-MEL-2 cells at 10 uM incubated for 48 hrs by sulforhodamine B assay relative to control; conditions: SK-MEL-2, 48 h
CCRF-CEM = assay: Growth of human CCRF-CEM cells at 10 uM incubated for 48 hrs by sulforhodamine B assay relative to control
A549 = assay: Growth of human A549/ATCC cells at 10 uM incubated for 48 hrs by sulforhodamine B assay relative to control; conditions: A549, 48 h
HCT-15 = assay: Growth of human HCT15 cells at 10 uM incubated for 48 hrs by sulforhodamine B assay relative to control; conditions: HCT-15, 48 h
U-251 = assay: Growth of human U251 cells at 10 uM incubated for 48 hrs by sulforhodamine B assay relative to control; conditions: U-251, 48 h
MDA-MB-435 = assay: Growth of human MDA-MB-435 cells at 10 uM incubated for 48 hrs by sulforhodamine B assay relative to control; conditions: MDA-MB-435, 48 h
SNB-19 = assay: Growth of human SNB19 cells at 10 uM incubated for 48 hrs by sulforhodamine B assay relative to control; conditions: SNB-19, 48 h
Hs-578T = assay: Growth inhibition of human Hs 578T cells at 10 uM incubated for 48 hrs by sulforhodamine B assay relative to control; format: functional; conditions: values are per cent of control
HCC 2998 = assay: Growth of human HCC2998 cells at 10 uM incubated for 48 hrs by sulforhodamine B assay relative to control; conditions: HCC 2998, 48 h
HOP-62 = assay: Growth of human HOP62 cells at 10 uM incubated for 48 hrs by sulforhodamine B assay relative to control; conditions: HOP-62, 48 h
MDA-MB-468 = assay: Growth inhibition of human MDA-MB-468 cells at 10 uM incubated for 48 hrs by sulforhodamine B assay relative to control; format: functional; conditions: MDA-MB-468, 48 h, values are per cent of control
SK-MEL-5 = assay: Growth of human SK-MEL-5 cells at 10 uM incubated for 48 hrs by sulforhodamine B assay relative to control; conditions: SK-MEL-5, 48 h

Compound	growth, % of control at 10 µM (SN12C) [%]	growth, % of control at 10 µM (OVCAR-8) [%]	growth, % of control at 10 µM (A498) [%]	growth, % of control at 10 µM (RPMI-8226) [%]	growth, % of control at 10 µM (M14) [%]	growth, % of control at 10 µM (ACHN) [%]	growth, % of control at 10 µM (786-0) [%]	growth, % of control at 10 µM (Malme-3M) [%]	growth, % of control at 10 µM (BT-549) [%]	growth, % of control at 10 µM (NCI-H460) [%]	growth, % of control at 10 µM (MOLT-4) [%]	growth, % of control at 10 µM (KM12) [%]	growth, % of control at 10 µM (OVCAR-5) [%]	growth, % of control at 10 µM (NCI-H226) [%]	growth, % of control at 10 µM (SK-MEL-2) [%]	growth, % of control at 10 µM (CCRF-CEM) [%]	growth, % of control at 10 µM (A549) [%]	growth, % of control at 10 µM (HCT-15) [%]	growth, % of control at 10 µM (U-251) [%]	growth, % of control at 10 µM (MDA-MB-435) [%]	also measured
CC(C)(C)S/C(Nc1ccccc1)=C(\C#N)C(=O)Nc1ccccc1	98.4	99.8	92.9	95.3	100	103	94.3	97.3	99.4	103	69.7	114	100	88.9	94	86.4	88.4	101	92	104	growth, % of control at 10 µM (SNB-19): 92.5%; growth, % of control at 10 µM (Hs-578T): 99.6%; growth, % of control at 10 µM (HCC 2998): 106%; growth, % of control at 10 µM (HOP-62): 90.6%; growth, % of control at 10 µM (MDA-MB-468): 92.8%; growth, % of control at 10 µM (SK-MEL-5): 102%
CCS/C(Nc1ccccc1)=C(\C#N)C(=O)Nc1ccccc1	94	94.2	76.2	79.2	128	102	88.5	117	103	99.5	69.2	90	96.5	92.9	87.6	82.4	86.2	93.7	92.6	110	growth, % of control at 10 µM (SNB-19): 91.2%; growth, % of control at 10 µM (Hs-578T): 96.9%; growth, % of control at 10 µM (HCC 2998): 96.1%; growth, % of control at 10 µM (HOP-62): 93.1%; growth, % of control at 10 µM (MDA-MB-468): 90.7%; growth, % of control at 10 µM (SK-MEL-5): 93.5%
CCS/C(Nc1ccccc1)=C(\C#N)C(=O)Nc1ccc(C)cc1	94.3	96	79.4	86	112	96.8	87.1	101	103	98.8	56.6	96.6	101	95	85.3	85.8	84.5	94.8	96.6	102	growth, % of control at 10 µM (SNB-19): 93.3%; growth, % of control at 10 µM (Hs-578T): 98.9%; growth, % of control at 10 µM (HCC 2998): 94.8%; growth, % of control at 10 µM (HOP-62): 103%; growth, % of control at 10 µM (MDA-MB-468): 103%; growth, % of control at 10 µM (SK-MEL-5): 93.6%
CC(C)(C)S/C(Nc1ccccc1)=C(\C#N)C(=O)N/N=C\c1ccco1	103	94.9	87	106	105	98	102	104	103	102	88.6	104	101	92	103	92.2	79.6	99.2	94.7	101	growth, % of control at 10 µM (SNB-19): 96.9%; growth, % of control at 10 µM (Hs-578T): 92.5%; growth, % of control at 10 µM (HCC 2998): 107%; growth, % of control at 10 µM (HOP-62): 93.8%; growth, % of control at 10 µM (MDA-MB-468): 95.8%; growth, % of control at 10 µM (SK-MEL-5): 96.9%
CC(C)(C)S/C(Nc1ccccc1)=C(\C#N)C(=O)N/N=C\c1ccc(Cl)cc1Cl	101	97.3	101	98.7	98.5	105	97.8	94.2	97	101	86.2	102	106	92.6	91.6	88.3	98.1	102	98.6	104	growth, % of control at 10 µM (SNB-19): 97.5%; growth, % of control at 10 µM (Hs-578T): 90.1%; growth, % of control at 10 µM (HCC 2998): 98.6%; growth, % of control at 10 µM (HOP-62): 98.1%; growth, % of control at 10 µM (MDA-MB-468): 98.9%; growth, % of control at 10 µM (SK-MEL-5): 98.7%
